Laboratory results: PMC9161374 (Science Translational Medicine, 2022)
pEC50: −log10 of the molar value. Where “and” joins values, the source holds several entries; their conditions need not be identical. Equal entries are not always repeated. Where two headings read alike, the source gives them in different places.

What was measured:
[1] = CCK-8 cell viability assay; type: cell-based, African green monkey; conditions: African green monkey; Vero E6 cells, 48 h, CCK8
Procedure: To investigate the effect of drugs on cell viability, Vero E6 cells were seeded in 96-well plates at a density of 20,000 cells per well and were treated with drugs at indicated concentrations (0, 0.01, 0.1, 1, 5, 10, 50, 75, 100, 200 μM) for 48 hours. Cell viability was tested by using Cell Counting Kit-8 (CCK-8, Bimake, B34302). The figures were plotted from cell viability percentage versus the drug concentrations using GraphPad Prism 6 software.
Fig. S4. Cytotoxicity assay of compounds in Vero E6 cells.
Vero E6 cells were plated in 96-well plates and treated with increasing concentrations
of each indicated compound, ranging from 0 to 200 μM, for 48 hours. Cell viability was
tested using Cell Counting Kit-8 (CCK-8). Data are presented as mean ± SD.

[2] = tested on: SARS-CoV-2 (B.1); assay: Anti-SARS-CoV-2 activity in Vero E6 cells (viral yield by qRT-PCR); type: cell-based; conditions: for % Inhibition: listed as Remdsivir
[3] = tested on: SARS-CoV-2 (Delta, B.1.617.2); assay: microbe, parasite or virus in culture; type: cell-based; conditions: for % Inhibition: delta, listed as Remdsivir
[4] = tested on: SARS-CoV-2 (Omicron, B.1.1.529); assay: microbe, parasite or virus in culture
[5] = tested on: SARS-CoV-2 (Omicron, B.1.1.529); conditions: Omicon, Vero E6, replicates, listed as Remdsivir
[6] = tested on: COVID-19; design: method as in PMID 34937145; conditions: administered early to non-hospitalized, high-risk patients ref 27; cited from earlier work
[7] = tested on: SARS-CoV-2 (Beta, B.1.351); assay: microbe, parasite or virus in culture; type: cell-based; conditions: for % Inhibition: beta, listed as Remdsivir
[8] = Severe acute respiratory syndrome coronavirus 2, Vero C1008, read-out: EC90 (Confidence 95%)

For `CCC(CC)COC(=O)[C@H](C)N[P@](=O)(OC[C@H]1O[C@@](C#N)(c2ccc3c(N)ncnn23)[C@H](O)[C@@H]1O)Oc1ccccc1` [Remdesivir, remdesivir, reference compound], the CC50 at 48 h [1] was over 50 µM, the “% Inhibition” value ([2]; B.1, 2 uM, Vero E6, replicates, 2 µM) was 36.1424% and the “% Inhibition” value ([2]; B.1, 5 uM, Vero E6, replicates, 5 µM) was 93.823%. For the same compound, the “% Inhibition” value ([2]; B.1, 10 uM, Vero E6, replicates, 10 µM) was 98.7241%, the “% Inhibition” value ([2]; B.1, 50 uM, Vero E6, replicates, 50 µM) was 99.0519% and the inhibition at 0.01 µM ([2]; Severe acute respiratory syndrome coronavirus 2, Vero C1008, B.1, 0.01 uM, Vero E6, replicates) was 0%. It also gave an inhibition at 0.1 µM ([2]; Severe acute respiratory syndrome coronavirus 2, Vero C1008, B.1, 0.1 uM, Vero E6, replicates) of 0%, an inhibition at 0.25 µM ([2]; Severe acute respiratory syndrome coronavirus 2, Vero C1008, B.1, 0.25 uM, Vero E6, replicates) of 0% and an inhibition at 0.5 µM ([2]; Severe acute respiratory syndrome coronavirus 2, Vero C1008, B.1, 0.5 uM, Vero E6, replicates) of 0%. It also gave an inhibition at 1 µM ([2]; Severe acute respiratory syndrome coronavirus 2, Vero C1008, B.1, 1 uM, Vero E6, replicates) of 0%, an inhibition at 2 µM ([2]; Severe acute respiratory syndrome coronavirus 2, Vero C1008, B.1, 2 uM, Vero E6, replicates) of 39.1% and an inhibition at 5 µM ([2]; Severe acute respiratory syndrome coronavirus 2, Vero C1008, B.1, 5 uM, Vero E6, replicates) of 94.6%. For the same compound, the inhibition at 10 µM ([2]; Severe acute respiratory syndrome coronavirus 2, Vero C1008, B.1, 10 uM, Vero E6, replicates) was 98.6%, the inhibition at 50 µM ([2]; Severe acute respiratory syndrome coronavirus 2, Vero C1008, B.1, 50 uM, Vero E6, replicates) was 99.2% and the EC90 [2, 8] was 4.25 µM. For the same compound, the pEC50 ([2]; Severe acute respiratory syndrome coronavirus 2, Vero C1008, MOI 0.05, 48 h) was 5.64, the pEC50 ([3]; Severe acute respiratory syndrome coronavirus 2, Vero C1008, 48 h, read-out: EC50 in Vero E6 cells, SARS-CoV-2 (Delta, B.1.617.2)) was 5.78 and the inhibition at 0.01 µM ([3]; Severe acute respiratory syndrome coronavirus 2, Vero C1008, delta, 0.01 uM, Vero E6, replicates) was 0%. It also gave an inhibition at 0.1 µM ([3]; Severe acute respiratory syndrome coronavirus 2, Vero C1008, delta, 0.1 uM, Vero E6, replicates) of 0%, an inhibition at 0.25 µM ([3]; Severe acute respiratory syndrome coronavirus 2, Vero C1008, delta, 0.25 uM, Vero E6, replicates) of 0% and an inhibition at 0.5 µM ([3]; Severe acute respiratory syndrome coronavirus 2, Vero C1008, delta, 0.5 uM, Vero E6, replicates) of 0%. The inhibition at 1 µM ([3]; Severe acute respiratory syndrome coronavirus 2, Vero C1008, delta, 1 uM, Vero E6, replicates) was 55.7%, the inhibition at 2 µM ([3]; Severe acute respiratory syndrome coronavirus 2, Vero C1008, delta, 2 uM, Vero E6, replicates) was 58% and the inhibition at 5 µM ([3]; Severe acute respiratory syndrome coronavirus 2, Vero C1008, delta, 5 uM, Vero E6, replicates) was 77.1%. It also gave an inhibition at 10 µM ([3]; Severe acute respiratory syndrome coronavirus 2, Vero C1008, delta, 10 uM, Vero E6, replicates) of 99.2%, an inhibition at 50 µM ([3]; Severe acute respiratory syndrome coronavirus 2, Vero C1008, delta, 50 uM, Vero E6, replicates) of 99.9% and an EC90 ([3]; Severe acute respiratory syndrome coronavirus 2, Vero C1008, read-out: EC90 (Confidence 95%), Vero-E6, Delta B.1.617.2) of 7.34 µM. The “% Inhibition” value ([3]; 1 uM, Vero E6, replicates) was 43.4129%, the “% Inhibition” value ([3]; 2 uM, Vero E6, replicates) was 46.5254% and the “% Inhibition” value ([3]; 5 uM, Vero E6, replicates) was 77.4749%. For the same compound, the “% Inhibition” value ([3]; 10 uM, Vero E6, replicates) was 96.2382%, the “% Inhibition” value ([3]; 50 uM, Vero E6, replicates) was 99.3849% and the pEC50 ([4]; Severe acute respiratory syndrome coronavirus 2, Vero C1008, 48 h, read-out: EC50 in Vero E6 cells, SARS-CoV-2 (Omicron, B.1.1.529)) was 5.91. The inhibition at 0.069 µM ([4]; Severe acute respiratory syndrome coronavirus 2, Vero C1008, Omicon, 0.069 uM, Vero E6, replicates) was 0%, the inhibition at 5 µM ([4]; Severe acute respiratory syndrome coronavirus 2, Vero C1008, Omicon, 5 uM, Vero E6, replicates) was 96.9% and the inhibition at 10 µM ([4]; Severe acute respiratory syndrome coronavirus 2, Vero C1008, Omicon, 10 uM, Vero E6, replicates) was 100%. The EC90 [4, 8] was 5.69 µM, the “% Inhibition” value ([5]; 2.5 uM) was 31.5626% and 77.85% and 88.9906% and the “% Inhibition” value ([5]; 5 uM) was 96.6907% and 99.2675%. For the same compound, the “% Inhibition” value ([5]; 10 uM) was 99.9718% and 99.9679%, the “reduction of the risk of hospitalization or death” value [6] was 87% and the pEC50 ([7]; Severe acute respiratory syndrome coronavirus 2, Vero C1008, 48 h, read-out: EC50 in Vero E6 cells, SARS-CoV-2 (Beta, B.1.351)) was 5.75. For the same compound, the inhibition at 0.01 µM ([7]; Severe acute respiratory syndrome coronavirus 2, Vero C1008, beta, 0.01 uM, Vero E6, replicates) was 0%, the inhibition at 0.1 µM ([7]; Severe acute respiratory syndrome coronavirus 2, Vero C1008, beta, 0.1 uM, Vero E6, replicates) was 0% and the inhibition at 0.25 µM ([7]; Severe acute respiratory syndrome coronavirus 2, Vero C1008, beta, 0.25 uM, Vero E6, replicates) was 0%. For the same compound, the inhibition at 0.5 µM ([7]; Severe acute respiratory syndrome coronavirus 2, Vero C1008, beta, 0.5 uM, Vero E6, replicates) was 0%, the inhibition at 2 µM ([7]; Severe acute respiratory syndrome coronavirus 2, Vero C1008, beta, 2 uM, Vero E6, replicates) was 65.2% and the inhibition at 5 µM ([7]; Severe acute respiratory syndrome coronavirus 2, Vero C1008, beta, 5 uM, Vero E6, replicates) was 86.2%. It also gave an inhibition at 10 µM ([7]; Severe acute respiratory syndrome coronavirus 2, Vero C1008, beta, 10 uM, Vero E6, replicates) of 99.9%, an inhibition at 50 µM ([7]; Severe acute respiratory syndrome coronavirus 2, Vero C1008, beta, 50 uM, Vero E6, replicates) of 99.9% and an EC90 ([7]; Severe acute respiratory syndrome coronavirus 2, Vero C1008, read-out: EC90 (Confidence 95%), Vero-E6, Beta B.1.351) of 5.02 µM. For the same compound, the “% Inhibition” value ([7]; 1 uM, Vero E6, replicates) was 35.9868% and 14.2725%, the “% Inhibition” value ([7]; 2 uM, Vero E6, replicates) was 49.345% and the “% Inhibition” value ([7]; 5 uM, Vero E6, replicates) was 85.4168%. The “% Inhibition” value ([7]; 10 uM, Vero E6, replicates) was 99.9589% and the “% Inhibition” value ([7]; 50 uM, Vero E6, replicates) was 99.9256%.
